{
  "source": "paper PMC4099323",
  "about": "“Inhibition of Catalase by Tea Catechins in Free and Cellular State: A Biophysical Approach” (PLoS ONE, 2014)",
  "key": {"[1]": {"system": "phosphorylation of JNK, JUN, MEK1, MEK2", "conditions": "JB6 epidermal cell lines, 5–20 µM; cited from earlier work"}, "G3BP1": {"biological_target": "G3BP1", "conditions": "read-out: dissociation constant (K d); cited from earlier work"}, "[2]": {"biological_target": "T1, Catalase (from bovine liver) (Bos taurus, UniProt P00432)", "T1 construct": "Catalase (from bovine liver); purchased Sigma-Aldrich, St. Louis, MO, USA; host or cells: bovine liver", "T1 sequence (P00432 2-527 limits assumed)": "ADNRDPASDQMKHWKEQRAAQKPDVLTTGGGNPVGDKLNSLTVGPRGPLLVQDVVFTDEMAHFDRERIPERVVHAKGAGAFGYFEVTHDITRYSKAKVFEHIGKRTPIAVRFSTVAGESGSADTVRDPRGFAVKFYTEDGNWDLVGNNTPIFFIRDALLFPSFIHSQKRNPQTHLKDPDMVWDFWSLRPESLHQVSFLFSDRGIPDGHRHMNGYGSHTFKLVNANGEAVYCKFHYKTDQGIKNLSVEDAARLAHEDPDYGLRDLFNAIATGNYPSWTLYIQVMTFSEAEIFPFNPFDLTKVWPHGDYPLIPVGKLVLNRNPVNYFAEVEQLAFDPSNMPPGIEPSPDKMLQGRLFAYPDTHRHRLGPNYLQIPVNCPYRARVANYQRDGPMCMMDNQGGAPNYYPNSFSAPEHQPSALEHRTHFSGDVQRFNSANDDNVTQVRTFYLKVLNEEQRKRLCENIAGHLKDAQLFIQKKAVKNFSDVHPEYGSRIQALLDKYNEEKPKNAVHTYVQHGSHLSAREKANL", "assay": "Inhibition of pure catalase activity (cell free), H2O2 decay at 240 nm", "format": "biochemical", "experimental": "Absorption spectrophotometer (Varian, CARY 100 Bio, USA) was used to determine pure catalase activity (cell free). Briefly, 900 µl of H2O2 (0.036%) was taken in quartz cell of 1 cm path length and its absorbance was recorded at 240 nm. To the solution, 100 µl of catalase (50 U/ml) was added and the decrease in absorbance was recorded at 10 s interval. This experiment was performed in presence 50 µM each of four catechins and 3-AT separately to evaluate the inhibitory effect of catechins on catalase activity, after 1 h incubation.\n(§1) On addition of catechins, a decrease in rate of H2O2 degradation i.e. a decrease in pure catalase activity was observed which is represented in Figure 6A. Catechins with galloyl moiety (ECG and EGCG) reduced catalase activity more than its non-gallated counterparts i.e. EGC and EC. However, Inhibition by EGCG is the closest to inhibition by known catalase inhibitor 3-AT."}, "vimentin": {"biological_target": "vimentin", "conditions": "read-out: dissociation constant (K d); cited from earlier work"}, "[3]": {"system": "cyclin dependent kinase 2 (CDK2)", "conditions": "MCF7 breast cancer cell lines, 30 µM; cited from earlier work"}, "[4]": {"biological_target": "T1, Catalase (from bovine liver)", "assay": "Isothermal titration calorimetry of catechins binding to catalase", "conditions": "25°C", "experimental": "The energetics of the binding of catechins to catalase was studied by ITC using a MicroCal ITC200, (Northampton, MA, USA). All solutions were degassed under vacuum (140 mbar, 10 min) on the MicroCal’s Thermovac unit to eliminate air bubble formation inside the calorimeter cell. Briefly, the calorimeter syringe was filled with a concentrated solution of catechins (10 µM each). Successive injections of this solution into 1 µM solution of catalase in the calorimeter cell were effected from the rotating syringe with constant stirring of the solution. The titration and analysis were performed through Origin 7 software provided with the unit.\nITC directly measures the heat released during a chemical reaction. ITC can reveal the stoichiometry, enthalpy free energy, and entropy changes that occur over the course of a reaction, [46]. Data obtained from the titration are presented by the series of peaks corresponding to each injection. Usually, this representation is transformed into the apparent heat change between two injections as a function of the titrant ratio by means of integration of power differential with regard to time. ITC has been used mainly to quantify interactions in various biochemical systems [47]–[49]. ITC has been used in the present study to determine binding affinity and other thermodynamic parameters of catechins-catalase interaction. Representative isothermal calorimetric heat profiles for the binding of catechins-catalase interaction, at physiological pH and 25°C are shown in Figure 4 (A–D). The data were corrected for the heat of dilution of catechins, which was determined in a separate set of experiments under identical conditions. The titration and analysis were performed using one-site binding model through Origin 7 software provided with the unit. From Figure 4 it is observed that the titration of catalase with all the four catechins yield negative heat deflections. EC, EGC, ECG, and EGCG bind to catalase with binding constants 2.13×10^5, 1.92×10^5, 6.36×10^5, and 8.19×10^5 M^−1, respectively, as determined by the following equation: ΔG = −RT ln K, where ΔG is the free energy, R and T are the gas constant and temperature, respectively, K is the binding constant."}, "[5]": {"biological_target": "T2, cellular catalase in K562 cells (Homo sapiens, UniProt P04040)", "T2 construct": "endogenous in cells; host or cells: K562 cells", "T2 sequence (P04040 2-527 limits assumed)": "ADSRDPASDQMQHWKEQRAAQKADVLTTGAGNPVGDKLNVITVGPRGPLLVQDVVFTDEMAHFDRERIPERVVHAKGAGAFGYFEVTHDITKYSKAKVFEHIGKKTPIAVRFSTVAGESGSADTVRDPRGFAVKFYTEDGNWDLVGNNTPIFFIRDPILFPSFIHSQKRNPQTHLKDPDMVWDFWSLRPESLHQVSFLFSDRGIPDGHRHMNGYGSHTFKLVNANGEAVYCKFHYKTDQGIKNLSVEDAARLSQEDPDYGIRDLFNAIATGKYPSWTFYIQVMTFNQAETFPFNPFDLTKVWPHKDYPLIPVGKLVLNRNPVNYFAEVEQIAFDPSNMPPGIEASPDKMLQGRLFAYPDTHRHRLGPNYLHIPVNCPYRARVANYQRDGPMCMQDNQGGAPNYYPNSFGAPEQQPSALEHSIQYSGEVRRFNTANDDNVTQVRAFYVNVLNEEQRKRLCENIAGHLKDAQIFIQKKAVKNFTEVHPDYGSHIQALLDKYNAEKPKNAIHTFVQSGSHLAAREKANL", "assay": "Inhibition of cellular catalase activity in K562 cells", "format": "cell-based", "conditions": "50 µM each, 2 hours at 37°C", "experimental": "Estimation of cellular catalase activity was carried out by suspending K562 cells (5×10^4 for each sample) in 1 ml of PBS along with four catechins and 3-AT (50 µM each) separately and incubated at 37°C for 2 hours. Later, each sample was centrifuged and washed twice with PBS. The final pellet was suspended in 200 µl lysis buffer and kept on ice for 30 min. The lysate was then used in the same protocol used for evaluation of pure catalase activity.\nas §1"}, "Bcl-2 proteins": {"biological_target": "Bcl-2 proteins", "conditions": "read-out: inhibition constant (K i); cited from earlier work"}, "[6]": {"conditions": "ITC, directly extracted from the experiment"}},
  "data": [
    {"smiles": "O=C(O[C@@H]1Cc2c(O)cc(O)cc2O[C@@H]1c1cc(O)c(O)c(O)c1)c1cc(O)c(O)c(O)c1", "note": "[EGCG, (−)-epigallocatechin gallate]", "values": [
      {"measurement": "inhibition of phosphorylation of JNK, JUN, MEK1, MEK2", "setting": "[1]", "value": "inhibited"},
      {"measurement": "Kd", "setting": "G3BP1", "value": 400, "unit": "nM"},
      {"measurement": "y-intercept 1/V0 of inhibited catalase", "setting": "[2]; Lineweaver-Burk plot, uninhibited 0.0081", "value": 0.3635, "unit": "min/µM"},
      {"measurement": "type of inhibition (Lineweaver-Burk plot)", "setting": "[2]; catalase – H2O2 reaction", "value": "uncompetitive"},
      {"measurement": "order of inhibition of catalase activity", "setting": "[2]; pure catalase, 50 µM each, 1 h incubation", "value": "3-AT>EGCG>ECG>EC>EGC"},
      {"measurement": "Kd", "setting": "vimentin", "value": 3.3, "unit": "nM"},
      {"measurement": "inhibition of CDK2", "setting": "[3]", "value": "inhibited"},
      {"measurement": "ΔG", "setting": "[4]; ITC, calculated from the average values of ΔH", "value": -7.95, "unit": "kcal/mol"},
      {"measurement": "ΔH", "setting": "[4]; [6]", "value": "-450 ± 22.5", "unit": "kcal/mol"},
      {"measurement": "ΔS", "setting": "[4]; [6]", "value": "−1.48×10^3 cal/mol/K"},
      {"measurement": "Kd", "setting": "[4]; one-site binding model, from ΔG = −RT ln K, read-out: binding constant with catalase (ITC) (converted)", "value": 1220, "unit": "nM"},
      {"measurement": "inhibition of cellular catalase activity", "setting": "[5]", "value": "inhibited cellular catalase in K562 cancer cells"},
      {"measurement": "Ki", "setting": "Bcl-2 proteins", "value": "330 to 490", "unit": "nM"}
    ]}
  ]
}
